In patent US20060099648A1, “Compositions and methods for epitope mapping” (priority 2000, published 2006):

What follows are molecules tested on MSP1-19 (assay: Epitope mapping: displacement of human IgG from peptide pins on exposure to MSP1-19). Settings: change in human IgG binding to peptide pin after 1 h exposure to 50 mg/mL MSP1-19 at room temperature; normalised to no-peptide pins and control peptide GLAQG.
Set-up: species or system Plasmodium falciparum
Description: A natural human IgG antibody library was tested for its ability to bind to peptides associated with the 19 kDa C-terminal region of merozoite surface protein 1 (MSP1-19) from Plasmodium falciparum (Kaslow et al., Mol. Biochem. Parasitology 63:283-289 (1994)). The 89 amino acid sequence from MSP1-19 was used for the epitope mapping experiment (see Table 1).
Briefly, a library of pentamer peptides was synthesized on polypropylene pins following the procedures described by Geysen et al., Proc. Natl. Acad. Sci. USA 81:3998-4002 (1984). These peptides represented all five-amino-acid stretches of MSP1-19 offset by one residue (Table 1). Peptide pins were precoated in phosphate buffered saline (PBS), pH 7.2, containing 2% BSA and 0.1% TWEEN 20 for one hour at room temperature. Five successive washes of the pins were carried out for five minutes each with agitation in PBS. Human IgG (Calbiochem; San Diego Calif.) was complexed to the peptides by incubating 0.1 mg/mL IgG in PBS at 4° C. for 30 hours. Unbound antibody was removed by washing as described above in 10 mM TRIS, pH 7.4 buffer containing 150 mM NaCl (TBS) using new microtiter plates for transferring the pins for each of the five washings. Anti-human IgG (goat) alkaline phosphatase conjugate was diluted to 0.1 mg specific antibody/mL in TBS and incubated with the peptide/antibody complex for one hour at room temperature before washing five times with TBS, as described above. The pins were then incubated in assay solution containing 10 mM TRIS, pH 8.0, 150 mM NaCl, 0.5 mM MgCl2, and 0.1 mM 4-methylumbelliferyl-phosphate for 30 minutes at room temperature in the dark. Following incubation, the fluorescence intensity of the assay solution was measured in a Spectromax Gemini plate reader (Molecular Devices; Sunnyvale Calif.)(ex 358 nm/em 450 nm).
The peptide/antibody complexes on the pins were washed five times in TBS, as described above, and incubated with 50 mg/mL MSP1-19 diluted in TBS for one hour at room temperature. The pins were washed in TBS as before and incubated in assay mixture for 30 minutes in the dark prior to measurement of the fluorescent intensity. Change in binding was determined using the equation: ΔF=(FMSP−Fb,MSP)/(F100,MSP−Fb,MSP)−(F0−Fb,0)/(F100,0−Fb,0) where FMSP and F0 are the fluorescence intensities of peptide containing pins after and before exposure to MSP1-19, respectively. Fb,MSP and Fb,0 are the fluorescence intensities of pins with no peptide after and before exposure to MSP1-19, respectively. F100,MSP and F100,0 are the fluorescence intensities of pins containing a control peptide, GLAQG (SEQ ID NO:90), after and prior to exposure to MSP1-19.

Molecule | ΔF (%)
ADAKC [Peptide 58] | <5
AKCTE [Peptide 60] | 5
CDADA [Peptide 56] | <5
CECTK [Peptide 76] | <5
CFRHL [Peptide 18] | <5
CKCLL [Peptide 28] | <5
CLLNY [Peptide 30] | <5
CNENN [Peptide 49] | 16
CPQNS [Peptide 12] | <5
CTEED [Peptide 62] | <5
CTKPD [Peptide 78] | 10
CVENP [Peptide 41] | <5
CVKKQ [Peptide 7] | <5
DADAK [Peptide 57] | <5
DAKCT [Peptide 59] | <5
DEREE [Peptide 23] | <5
DGIFC [Peptide 88] | 7
DKCVE [Peptide 39] | <5
DSGSN [Peptide 66] | 9
DSYPL [Peptide 82] | 9
ECKCL [Peptide 27] | <5
ECTKP [Peptide 77] | 13
EDSGS [Peptide 65] | 7

Molecule | ΔF (%)
EECKC [Peptide 26] | <5
EEDSG [Peptide 64] | 7
EGDKC [Peptide 37] | <5
ENNGG [Peptide 51] | <5
ENPNP [Peptide 43] | <5
EREEC [Peptide 24] | <5
FDGIF [Peptide 87] | 9
FRHLD [Peptide 19] | <5
GCDAD [Peptide 55] | 7
GCFRH [Peptide 17] | <5
GDKCV [Peptide 38] | <5
GGCDA [Peptide 54] | <5
GIFCS [Peptide 89] | 11
GKKIT [Peptide 71] | 6
GSNGK [Peptide 68] | <5
HLDER [Peptide 21] | <5
HQCVK [Peptide 5] | <5
ISQHQ [Peptide 2] | <5
ITCEC [Peptide 74] | 5
KCLLN [Peptide 29] | <5
KCTEE [Peptide 61] | 6
KCVEN [Peptide 40] | <5
KITCE [Peptide 73] | 7

Molecule | ΔF (%)
KKITC [Peptide 72] | 9
KKQCP [Peptide 9] | <5
KPDSY [Peptide 80] | 11
KQCPQ [Peptide 10] | <5
KQEGD [Peptide 35] | <5
LDERE [Peptide 22] | <5
LFDGI [Peptide 86] | 11
LLNYK [Peptide 31] | <5
LNYKQ [Peptide 32] | <5
NENNG [Peptide 50] | 5
NGGCD [Peptide 53] | 10
NGKKI [Peptide 70] | 12
NISQH [Peptide 1] | <5
NNGGC [Peptide 52] | 6
NPNPT [Peptide 44] | <5
NPTCN [Peptide 46] | <5
NSGCF [Peptide 15] | <5
NYKQE [Peptide 33] | <5
PDSYP [Peptide 81] | 9
PLFDG [Peptide 85] | 16
PNPTC [Peptide 45] | <5
PQNSG [Peptide 13] | <5
PTCNE [Peptide 47] | <5

Molecule | ΔF (%)
QCPQN [Peptide 11] | <5
QCVKK [Peptide 6] | <5
QEGDK [Peptide 36] | <5
QHQCV [Peptide 4] | <5
QNSGC [Peptide 14] | <5
REECK [Peptide 25] | <5
RHLDE [Peptide 20] | <5
SGCFR [Peptide 16] | <5
SGSNG [Peptide 67] | <5
SNGKK [Peptide 69] | <5
SQHQC [Peptide 3] | <5
SYPLF [Peptide 83] | 13
TCECT [Peptide 75] | 12
TCNEN [Peptide 48] | <5
TEEDS [Peptide 63] | <5
TKPDS [Peptide 79] | 11
VENPN [Peptide 42] | <5
VKKQC [Peptide 8] | <5
YKQEG [Peptide 34] | <5
YPLFD [Peptide 84] | 12

These molecules were tested against Human IgG (Calbiochem; San Diego Calif.) (human) (assay: IgG displaced from peptide pin; competitor MSP1-19). Settings: not given.

Molecule | ΔF (%)
KKQCP [Peptide# 9] | < 5
LFDGI [Peptide# 86] | 11
GIFCS [Peptide# 89] | 11
FDGIF [Peptide# 87] | 9
DGIFC [Peptide# 88] | 7
